Laboratory results as given in patent US8546582B2, “Sulfenamide, vulcanization accelerator containing the sulfenamide for rubber, and process for producing the vulcanization accelerator” (Ouchi Shinko Chemical Industrial Co., Ltd., priority 2007, dated 2013).
Where “and” joins values, the source holds several entries; their conditions need not be identical. Identical values can stand only once. One block for each compound: values may come before it.

How the values were obtained:
[1] = stated in TRGS552 (non-patent document 3); cited from earlier work
[2] = tested on: fish and shellfish; conditions: Official Bulletin of Economy, Trade and Industry, Dec. 22, 2005; cited from earlier work
[3] = 1-octanol/water distribution coefficient by high-performance liquid chromatography (JIS Z7260-117); assay type: physicochemical; conditions: HPLC
Method: For N-methyl-N-t-butylbenzothiazole-2-sulfenamide (BMBS) synthesized in Example 1, N-ethyl-N-t-butylbenzothiazole-2-sulfenamide (BEBS) synthesized in Example 2, N-n-propyl-N-t-butylbenzothiazole-2-sulfenamide (BPBS) synthesized in Example 3, N-n-butyl-N-t-butylbenzothiazole-2-sulfenamide (BBBS) synthesized in Example 4, and N,N-dicyclohexylbenzothiazole-2-sulfenamide (DCBS) which is a conventional compound, the 1-octanol/water distribution coefficient was measured by high-performance liquid chromatography according to JIS Z7260-117.

[4] = tested on: microorganisms; conditions: safety checks of existing chemical substances; cited from earlier work
[5] = tested on: carp; test: test on the degree of bioconcentration of a chemical substance in the body of fish and shellfish; assay type: in vivo; conditions: for Concentration ratio (times), average / Concentration ratio (times): carp; for Concentration ratio (times): single values
Method: For BEBS synthesized in Example 2, a test on the degree of bioconcentration of a chemical substance in the body of fish and shellfish was carried out according to “Shinki Kagaku Busshitsu To Nikakaru Shiken No Hoho Nitsuite (Circular on Test Methods of New Chemical Substances)” (Yakushokuhatsu No. 1121002 dated Nov. 21, 2003, Seikyoku No. 2 dated on Nov. 13, 2003, Kanhokihatsu No. 03121002).
Test bioconcentration: First bioconcentration area 1 μg/L • Second bioconcentration area 0.1 μg/L
Exposure duration: 22 days
Exposure method: Continuous flow-through
Analytical method: High-performance liquid chromatography

[6] = first concentration area 1 μg/L, after 14 days
[7] = first concentration area 1 μg/L, after 22 days
[8] = second concentration area 0.1 μg/L, after 14 days
[9] = second concentration area 0.1 μg/L, after 22 days

SMILES: CCN(N=O)C(C)(C)C [N-nitroso-N-ethyl-t-butylamine]
carcinogenicity [1]: not carcinogenic

SMILES: c1ccc2sc(SN(C3CCCCC3)C3CCCCC3)nc2c1 [DCBS, N,N-dicyclohexylbenzothiazole-2-sulfenamide]
concentration ratio (BCFSS) [2]: 6000 times | chromatographic logP ([3]; read-out: logPow): 7.4 | degradability [4]: hardly degradable

SMILES: CN(Sc1nc2ccccc2s1)C(C)(C)C [BMBS, N-methyl-N-t-butyl benzothiazole-2-sulfenamide]
logPow [3]: 4.5

SMILES: CN(N=O)C(C)(C)C [N-nitroso-N-methyl-t-butylamine]
carcinogenicity [1]: not carcinogenic

SMILES: CCCCN(N=O)C(C)(C)C [N-nitroso-N-n-butyl-t-butylamine]
carcinogenicity [1]: not carcinogenic

melting point: 55 to 56 °C
SMILES: CCCCN(Sc1nc2ccccc2s1)C(C)(C)C [BBBS, N-n-butyl-N-t-butylbenzothiazole-2-sulfenamide]

melting point: 55 to 56 °C
SMILES: CCCN(Sc1nc2ccccc2s1)C(C)(C)C [BPBS, N-n-propyl-N-t-butylbenzothiazole-2-sulfenamide]

SMILES: CCN(Sc1nc2ccccc2s1)C(C)(C)C [BEBS, N-ethyl-N-t-butylbenzothiazole-2-sulfenamide]
Concentration ratio (times), average [5, 6]: 180 times | Concentration ratio (times) [5, 6]: 120 times and 240 times | Concentration ratio (times), average [5, 7]: 170 times | Concentration ratio (times) [5, 7]: 180 times and 170 times | Concentration ratio (times), average [5, 8]: 180 times | Concentration ratio (times) [5, 8]: 180 times and 190 times | Concentration ratio (times), average [5, 9]: 160 times | Concentration ratio (times) [5, 9]: 180 times and 130 times | bioaccumulation or bioconcentration ([5]; preliminary test, in 22 days): 180 times

SMILES: O=NN(C1CCCCC1)C1CCCCC1 [N-nitrosodicyclohexylamine]
carcinogenicity [1]: not carcinogenic
